Consider 80 compounds from the NIST ThermoML archive (doi:10.1021/je060033f).

Numbers after ± are expanded uncertainties.

This series can be described thus: activity coefficient (dimensionless); of the first substance listed, at infinite dilution; xn = mol fraction of the nth substance listed. To be noted: 323.15 K; 101 kPa; Liquid; Chromatography; x1 = 0.
In the case of `ClC(Cl)Cl` [trichloromethane] + C=CC[n+]1ccn(CCCCCCCC)c1.[Br-], the activity coefficient was determined as 0.14 ± 0.03.
To `Cc1ccccc1C` [1,2-dimethylbenzene] + CCCCCCCCCC[n+]1ccn(CCCB(O)O)c1.[Br-] belongs 1.89 ± 0.13.
Regarding `CCCCCCCC` [octane] + C=CCn1cc[n+](C)c1.[Br-], the activity coefficient came out at 63 ± 4.3.
To `C#CCCCC` [1-hexyne] + C=CC[n+]1ccn(CCCCCCCC)c1.[Br-] belongs 2.04 ± 0.14.
To `CCC[N+](=O)[O-]` [1-nitropropane] + C=CC[n+]1ccn(CCCCCCCC)c1.[Br-] belongs 1.23 ± 0.08; to `CO` [methanol] + C=CC[n+]1ccn(CCCCCCCCCCCC)c1.[Br-], 0.15 ± 0.03.
To `CCCCCCC` [heptane] + C=CC[n+]1ccn(CCCCCCCC)c1.[Br-] belongs 11.4 ± 0.78; to `C1CCCCC1` [cyclohexane] + CCCCCCCCCC[n+]1ccn(CCCB(O)O)c1.[Br-], 3.89 ± 0.26.
In the case of `ClC(Cl)Cl` [trichloromethane] + C[n+]1ccn(CCCB(O)O)c1.[Br-], the activity coefficient was found to be 3.01 ± 0.2.
To `CCCCCCCCC` [nonane] + C=CC[n+]1ccn(CCCCCCCCCCCC)c1.[Br-] belongs 6.93 ± 0.47; to `Cc1ccccc1C` [1,2-dimethylbenzene] + C=CC[n+]1ccn(CCCCCCCC)c1.[Br-], 2.39 ± 0.16; to `CCC(C)=O` [butanone] + C=CC[n+]1ccn(CCCCCCCCCCCC)c1.[Br-], 1.43 ± 0.09.
To `CCC(C)=O` [butanone] + CCCCCCCCCC[n+]1ccn(CCCB(O)O)c1.[Br-] belongs 1.59 ± 0.11.
Regarding `CCCCCCCCC` [nonane] + CCCCCCCCCCCC[n+]1ccn(CCCB(O)O)c1.[Br-], the activity coefficient stood at 6.99 ± 0.48.
On to `ClC(Cl)(Cl)Cl` [tetrachloromethane] + C=CC[n+]1ccn(CCCCCCCCCC)c1.[Br-], for which the activity coefficient was found to be 0.8 ± 0.05.
To `Cc1ccccc1C` [1,2-dimethylbenzene] + C=CCn1cc[n+](C)c1.[Br-] belongs 8.98 ± 0.61.
To `C1CCCCC1` [cyclohexane] + CCCCCCCCCCCC[n+]1ccn(CCCB(O)O)c1.[Br-] belongs 3.25 ± 0.22; to `C1COCCO1` [1,4-dioxane] + CCCCCCCCCCCC[n+]1ccn(CCCB(O)O)c1.[Br-], 1.32 ± 0.09.
For `C1CCCCC1` [cyclohexane] + C=CC[n+]1ccn(CCCCCCCCCCCC)c1.[Br-], the activity coefficient amounted to 3.12 ± 0.21.
To `c1ccccc1` [benzene] + C[n+]1ccn(CCCB(O)O)c1.[Br-] belongs 18.1 ± 1.2.
For `CCc1ccccc1` [ethylbenzene] + CCCCCCCCCC[n+]1ccn(CCCB(O)O)c1.[Br-], the activity coefficient is 2.37 ± 0.16.
On to `CCO` [ethanol] + C=CCn1cc[n+](C)c1.[Br-], for which the activity coefficient stood at 0.27 ± 0.03.
To `c1ccsc1` [thiophene] + C=CC[n+]1ccn(CCCCCCCCCC)c1.[Br-] belongs 0.89 ± 0.06; to `CCCCCC` [hexane] + C=CC[n+]1ccn(CCCCCCCCCC)c1.[Br-], 8.39 ± 0.57.
To `c1ccsc1` [thiophene] + C=CC[n+]1ccn(CCCCCCCC)c1.[Br-] belongs 0.93 ± 0.06; to `C#CCCCCC` [1-heptyne] + C=CC[n+]1ccn(CCCCCCCC)c1.[Br-], 2.56 ± 0.17; to `CCCCCCC` [heptane] + C=CC[n+]1ccn(CCCCCCCCCC)c1.[Br-], 11.1 ± 0.76.
To `CCCCCC` [hexane] + CCCCCCCCCCCC[n+]1ccn(CCCB(O)O)c1.[Br-] belongs 4.65 ± 0.32.
On to `CCCC(C)=O` [pentan-2-one] + C=CCn1cc[n+](C)c1.[Br-], for which the activity coefficient stood at 4.32 ± 0.29.
To `CCCO` [propan-1-ol] + C=CCn1cc[n+](C)c1.[Br-] belongs 0.54 ± 0.04; to `C#CCCCCC` [1-heptyne] + C[n+]1ccn(CCCB(O)O)c1.[Br-], 42.9 ± 2.9.
As for `CCCC(C)=O` [pentan-2-one] + CCCCCCCCCC[n+]1ccn(CCCB(O)O)c1.[Br-], the activity coefficient is 1.67 ± 0.11.
To `ClC(Cl)Cl` [trichloromethane] + CCCCCCCCCCCC[n+]1ccn(CCCB(O)O)c1.[Br-] belongs 0.19 ± 0.03.
For the compound `C=CCCCC` [hex-1-ene] + C=CCn1cc[n+](C)c1.[Br-], the activity coefficient is 16.5 ± 1.1.
For the compound `C#CCCCCC` [1-heptyne] + C=CCn1cc[n+](C)c1.[Br-], the activity coefficient was determined as 13.2 ± 0.9.
To `CCCCCCCC` [octane] + C[n+]1ccn(CCCB(O)O)c1.[Br-] belongs 81 ± 5.5; to `CCCCCCCC` [octane] + C=CC[n+]1ccn(CCCCCCCC)c1.[Br-], 14.9 ± 1; to `CCCCCC` [hexane] + C=CCn1cc[n+](C)c1.[Br-], 25.1 ± 1.7.
To `CC(C)CO` [2-methyl-1-propanol] + C=CC[n+]1ccn(CCCCCCCC)c1.[Br-] belongs 0.29 ± 0.03; to `C1CCCCC1` [cyclohexane] + CCCCCCCC[n+]1ccn(CCCB(O)O)c1.[Br-], 8.15 ± 0.56.
To `Cc1ccccc1` [toluene] + CCCCCCCC[n+]1ccn(CCCB(O)O)c1.[Br-] belongs 2.41 ± 0.16; to `CC#N` [acetonitrile] + C=CC[n+]1ccn(CCCCCCCCCC)c1.[Br-], 0.89 ± 0.06; to `C1COCCO1` [1,4-dioxane] + C=CC[n+]1ccn(CCCCCCCCCCCC)c1.[Br-], 1.3 ± 0.08.
Turning to `CCOCC` [diethyl ether] + C=CCn1cc[n+](C)c1.[Br-], the activity coefficient amounted to 11.4 ± 0.78.
In the case of `ClC(Cl)Cl` [trichloromethane] + C=CCn1cc[n+](C)c1.[Br-], the activity coefficient turned out to be 0.25 ± 0.03.
To `CCCC(C)=O` [pentan-2-one] + C=CC[n+]1ccn(CCCCCCCCCCCC)c1.[Br-] belongs 1.62 ± 0.11; to `CCCCCCCCC` [nonane] + C=CC[n+]1ccn(CCCCCCCCCC)c1.[Br-], 16.9 ± 1.2; to `Cc1cccc(C)c1` [1,3-dimethylbenzene] + C=CC[n+]1ccn(CCCCCCCCCCCC)c1.[Br-], 1.85 ± 0.12.
To `C#CCCCCC` [1-heptyne] + C=CC[n+]1ccn(CCCCCCCCCC)c1.[Br-] belongs 2.58 ± 0.18; to `c1ccsc1` [thiophene] + C=CC[n+]1ccn(CCCCCCCCCCCC)c1.[Br-], 0.77 ± 0.05.
To `Cc1cccc(C)c1` [1,3-dimethylbenzene] + CCCCCCCC[n+]1ccn(CCCB(O)O)c1.[Br-] belongs 3.57 ± 0.24; to `CCOCC` [diethyl ether] + C=CC[n+]1ccn(CCCCCCCC)c1.[Br-], 4.18 ± 0.28; to `CC#N` [acetonitrile] + C=CC[n+]1ccn(CCCCCCCC)c1.[Br-], 0.98 ± 0.06.
For the compound `CCc1ccccc1` [ethylbenzene] + C=CC[n+]1ccn(CCCCCCCCCC)c1.[Br-], the activity coefficient is 2.54 ± 0.17.
To `Cc1ccccc1` [toluene] + C=CC[n+]1ccn(CCCCCCCCCCCC)c1.[Br-] belongs 1.38 ± 0.09.
To `CO` [methanol] + C=CC[n+]1ccn(CCCCCCCCCC)c1.[Br-] belongs 0.17 ± 0.03.
To `c1ccsc1` [thiophene] + CCCCCCCCCCCC[n+]1ccn(CCCB(O)O)c1.[Br-] belongs 0.9 ± 0.06; to `CO` [methanol] + CCCCCCCCCCCC[n+]1ccn(CCCB(O)O)c1.[Br-], 0.04.
Take `Cc1ccccc1` [toluene] + C=CCn1cc[n+](C)c1.[Br-]: the activity coefficient was found to be 6.19 ± 0.42.
To `CCCCCCC` [heptane] + C[n+]1ccn(CCCB(O)O)c1.[Br-] belongs 77.6 ± 5.3.
To `CCCCCCCCC` [nonane] + C[n+]1ccn(CCCB(O)O)c1.[Br-] belongs 83.2 ± 5.7.
To `CCCCCCCCC` [nonane] + CCCCCCCC[n+]1ccn(CCCB(O)O)c1.[Br-] belongs 26.2 ± 1.8; to `CCCCCC` [hexane] + C=CC[n+]1ccn(CCCCCCCC)c1.[Br-], 8.9 ± 0.61.
As to `C1COCCO1` [1,4-dioxane] + C=CC[n+]1ccn(CCCCCCCC)c1.[Br-], the activity coefficient was found to be 1.52 ± 0.1.
To `c1ccsc1` [thiophene] + C[n+]1ccn(CCCB(O)O)c1.[Br-] belongs 19.4 ± 1.3.
On to `CCc1ccccc1` [ethylbenzene] + C[n+]1ccn(CCCB(O)O)c1.[Br-], for which the activity coefficient is 45.1 ± 3.1.
To `C#CCCCC` [1-hexyne] + C=CC[n+]1ccn(CCCCCCCCCC)c1.[Br-] belongs 2.02 ± 0.14; to `CC#N` [acetonitrile] + CCCCCCCCCCCC[n+]1ccn(CCCB(O)O)c1.[Br-], 1.16 ± 0.07.
For the compound `CCCC(C)=O` [pentan-2-one] + C=CC[n+]1ccn(CCCCCCCC)c1.[Br-], the activity coefficient was 1.93 ± 0.13.
To `ClC(Cl)Cl` [trichloromethane] + CCCCCCCC[n+]1ccn(CCCB(O)O)c1.[Br-] belongs 0.23 ± 0.03; to `CCC[N+](=O)[O-]` [1-nitropropane] + CCCCCCCCCC[n+]1ccn(CCCB(O)O)c1.[Br-], 1.19 ± 0.08; to `ClCCl` [dichloromethane] + CCCCCCCCCCCC[n+]1ccn(CCCB(O)O)c1.[Br-], 0.34 ± 0.03.
Turning to `CCCCCCC` [heptane] + CCCCCCCC[n+]1ccn(CCCB(O)O)c1.[Br-], the activity coefficient was 20.2 ± 1.4.
As for `ClC(Cl)(Cl)Cl` [tetrachloromethane] + CCCCCCCCCCCC[n+]1ccn(CCCB(O)O)c1.[Br-], the activity coefficient came to 0.9 ± 0.06.
To `C1CCCCC1` [cyclohexane] + C=CCn1cc[n+](C)c1.[Br-] belongs 15.7 ± 1.1; to `C=CCCCC` [hex-1-ene] + CCCCCCCCCC[n+]1ccn(CCCB(O)O)c1.[Br-], 3.76 ± 0.26.
To `CCc1ccccc1` [ethylbenzene] + CCCCCCCC[n+]1ccn(CCCB(O)O)c1.[Br-] belongs 3.28 ± 0.22.
To `CCCCCCCC` [octane] + CCCCCCCCCCCC[n+]1ccn(CCCB(O)O)c1.[Br-] belongs 6.34 ± 0.43.
As for `CCc1ccccc1` [ethylbenzene] + C=CCn1cc[n+](C)c1.[Br-], the activity coefficient was 11.1 ± 0.76.
To `CO` [methanol] + C=CC[n+]1ccn(CCCCCCCC)c1.[Br-] belongs 0.17 ± 0.03.
